Biological target: recombinant CD73 (Homo sapiens (Human), UniProt P21589)
Assay: Assay 2: Inhibition of the CD73 enzyme in vitro (0.05 nM CD73, 1 hour 37° C., Malachite Green)
Format: biochemical
Settings: 0.05 nM CD73, 50 μM AMP, 1 hour at 37° C.
Summary of the method: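 Free phosphate was quantified from absorbance at 630 nm against a phosphate standard curve. This was read 5 min after Malachite Green was added at room temperature. Beforehand, the recombinant soluble enzyme reacted for 1 hour at 37° C.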

Sequence of recombinant CD73 (P21589 27-547): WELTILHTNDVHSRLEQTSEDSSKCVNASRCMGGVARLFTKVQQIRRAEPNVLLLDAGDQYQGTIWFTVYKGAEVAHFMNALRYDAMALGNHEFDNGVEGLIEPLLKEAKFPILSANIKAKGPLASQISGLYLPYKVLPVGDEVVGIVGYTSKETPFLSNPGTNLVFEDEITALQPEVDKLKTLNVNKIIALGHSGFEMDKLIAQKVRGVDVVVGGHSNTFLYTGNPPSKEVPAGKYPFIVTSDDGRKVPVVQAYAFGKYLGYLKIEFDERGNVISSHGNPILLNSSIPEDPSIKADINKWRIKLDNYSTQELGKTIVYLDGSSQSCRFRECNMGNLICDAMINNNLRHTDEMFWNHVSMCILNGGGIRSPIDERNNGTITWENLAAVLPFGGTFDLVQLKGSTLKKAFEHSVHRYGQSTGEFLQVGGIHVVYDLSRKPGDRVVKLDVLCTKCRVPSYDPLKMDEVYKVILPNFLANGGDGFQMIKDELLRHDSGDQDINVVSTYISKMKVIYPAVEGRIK

Row | IC50 | Structure (SMILES)
1 | 9 nM | C#C[C@@]1(O)[C@@H](COC(Cc2cscn2)(C(=O)O)C(=O)O)O[C@@H](n2cnc3c(N)nc(Cl)nc32)[C@@H]1O [Example 126, 2-(((2R,3S,4R,5R)-5-(6-amino-2-chloro-9H-purin-9-yl)-3-ethynyl-3,4-dihydroxytetrahydrofuran-2-yl)methoxy)-2-(thiazol-4-ylmethyl)malonic acid]
2 | 170 nM | C#C[C@@]1(O)[C@@H](COC(Cc2ccccc2)(C(=O)O)C(=O)O)O[C@@H](n2cnc3c(N)nc(C(C)=O)nc32)[C@@H]1O [Example 127, 2-(((2R,3S,4R,5R)-5-(2-acetyl-6-amino-9H-purin-9-yl)-3-ethynyl-3,4-dihydroxytetrahydrofuran-2-yl)methoxy)-2-benzylmalonic acid]
3 | 6 nM | C#C[C@@]1(O)[C@@H](COC(Cc2cccs2)(C(=O)O)C(=O)O)O[C@@H](n2cnc3c(N)nc(Cl)nc32)[C@@H]1O [Example 128, 2-(((2R,3S,4R,5R)-5-(6-amino-2-chloro-9H-purin-9-yl)-3-ethynyl-3,4-dihydroxytetrahydrofuran-2-yl)methoxy)-2-(thiophen-2-ylmethyl)malonic acid]
4 | 0.36 nM | C#C[C@@]1(O)[C@@H](COC(Cc2ccc(-c3cccn(CC)c3=O)cc2)(C(=O)O)C(=O)O)O[C@@H](n2cnc3c(NC)nc(Cl)nc32)[C@@H]1O [Example 130, 2-(((2R,3S,4R,5R)-5-(2-chloro-6-(methylamino)-9H-purin-9-yl)-3-ethynyl-3,4-dihydroxytetrahydrofuran-2-yl)methoxy)-2-(4-(1-ethyl-2-oxo-1,2-dihydropyridin-3-yl)benzyl)malonic acid]
5 | > 100 nM | C#C[C@@]1(O)[C@@H](COC(Cc2ccc(N3CCCNC3=O)cc2)(C(=O)O)C(=O)O)O[C@@H](n2nc(C)c3ccc(Cl)nc32)[C@@H]1O [Example 131, 2-(((2R,3S,4R,5R)-5-(6-chloro-3-methyl-1H-pyrazolo[3,4-b]pyridin-1-yl)-3-ethynyl-3,4-dihydroxytetrahydrofuran-2-yl)methoxy)-2-(4-(2-oxotetrahydropyrimidin-1(2H)-yl)benzyl)malonic acid]
6 | 7 nM | C#C[C@@]1(O)[C@@H](COC(Cc2ccc(N3CCCNC3=O)cc2)(C(=O)O)C(=O)O)O[C@@H](n2cc(C)c(=O)[nH]c2=O)[C@@H]1O [Example 133, 2-(((2R,3S,4R,5R)-3-ethynyl-3,4-dihydroxy-5-(5-methyl-2,4-dioxo-3,4-dihydropyrimidin-1 (2H)-yl)tetrahydrofuran-2-yl)methoxy)-2-(4-(2-oxotetrahydropyrimidin-1 (2H)-yl)benzyl)malonic acid]
7 | 16 nM | C#C[C@@]1(O)[C@@H](COC(Cc2ccc(N3CCCNC3=O)cc2)(C(=O)O)C(=O)O)O[C@@H](n2ccc(=O)[nH]c2=O)[C@@H]1O [Example 134, 2-(((2R,3S,4R,5R)-5-(2,4-dioxo-3,4-dihydropyrimidin-1(2H)-yl)-3-ethynyl-3,4-dihydroxytetrahydrofuran-2-yl)methoxy)-2-(4-(2-oxotetrahydropyrimidin-1 (2H)-yl)benzyl)malonic acid]
8 | 91 nM | C#C[C@@]1(O)[C@@H](COC(Cc2ccc(N3CCCNC3=O)cc2)(C(=O)O)C(=O)O)O[C@@H](n2ccc(N)nc2=O)[C@@H]1O [Example 135, 2-(((2R,3S,4R,5R)-5-(4-amino-2-oxopyrimidin-1(2H)-yl)-3-ethynyl-3,4-dihydroxytetrahydrofuran-2-yl)methoxy)-2-(4-(2-oxotetrahydropyrimidin-1 (2H)-yl)benzyl)malonic acid]
9 | 0.24 nM | C#C[C@@]1(O)[C@@H](COC(Cc2ccc(N3CCCNC3=O)cc2)(C(=O)O)C(=O)O)O[C@@H](n2cnc3c(NCC4CC4)nc(Cl)nc32)[C@@H]1O [Example 136, 2-(((2R,3S,4R,5R)-5-(2-chloro-6-((cyclopropylmethyl)amino)-9H-purin-9-yl)-3-ethynyl-3,4-dihydroxytetrahydrofuran-2-yl)methoxy)-2-(4-(2-oxotetrahydropyrimidin-1(2H)-yl)benzyl)malonic acid]
10 | 0.31 nM | C#C[C@@]1(O)[C@@H](COC(Cc2ccc(N3CCCN(CCO)C3=O)cc2)(C(=O)O)C(=O)O)O[C@@H](n2cnc3c(NC)nc(Cl)nc32)[C@@H]1O [Example 137, 2-(((2R,3S,4R,5R)-5-(2-chloro-6-(methylamino)-9H-purin-9-yl)-3-ethynyl-3,4-dihydroxytetrahydrofuran-2-yl)methoxy)-2-(4-(3-(2-hydroxyethyl)-2-oxotetrahydropyrimidin-1 (2H)-yl)benzyl)malonic acid]
11 | 0.15 nM | C#C[C@@]1(O)[C@@H](COC(Cc2ccc(N3CCCN(CCO)C3=O)cc2)(C(=O)O)C(=O)O)O[C@@H](n2cnc3c(NCC4CC4)nc(Cl)nc32)[C@@H]1O [Example 138, 2-(((2R,3S,4R,5R)-5-(2-chloro-6-((cyclopropylmethyl)amino)-9H-purin-9-yl)-3-ethynyl-3,4-dihydroxytetrahydrofuran-2-yl)methoxy)-2-(4-(3-(2-hydroxyethyl)-2-oxotetrahydropyrimidin-1 (2H)-yl)benzyl)malonic acid]
12 | 0.13 nM | C#C[C@@]1(O)[C@@H](COC(Cc2ccc(N3CCCN(CCO)C3=O)cc2)(C(=O)O)C(=O)O)O[C@@H](n2cnc3c(NC(C)C)nc(Cl)nc32)[C@@H]1O [Example 139, 2-(((2R,3S,4R,5R)-5-(2-chloro-6-(isopropylamino)-9H-purin-9-yl)-3-ethynyl-3,4-dihydroxytetrahydrofuran-2-yl)methoxy)-2-(4-(3-(2-hydroxyethyl)-2-oxotetrahydropyrimidin-1 (2H)-yl)benzyl)malonic acid]
13 | 0.29 nM | C#C[C@@]1(O)[C@@H](COC(Cc2ccc(N3CCCNC3=O)cc2)(C(=O)O)C(=O)O)O[C@@H](n2cnc3c(NC(C)C)nc(Cl)nc32)[C@@H]1O [Example 140, 2-(((2R,3S,4R,5R)-5-(2-chloro-6-(isopropylamino)-9H-purin-9-yl)-3-ethynyl-3,4-dihydroxytetrahydrofuran-2-yl)methoxy)-2-(4-(2-oxotetrahydropyrimidin-1(2H)-yl)benzyl)malonic acid]
14 | 0.23 nM | C#C[C@@]1(O)[C@@H](COC(Cc2ccc(N3CCCNC3=O)cc2)(C(=O)O)C(=O)O)O[C@@H](n2cnc3c(NC)nc(Cl)nc32)[C@@H]1O [Example 141, 2-(((2R,3S,4R,5R)-5-(2-chloro-6-(methylamino)-9H-purin-9-yl)-3-ethynyl-3,4-dihydroxytetrahydrofuran-2-yl)methoxy)-2-(4-(2-oxotetrahydropyrimidin-1 (2H)-yl)benzyl)malonic acid]
15 | 5 nM | C#C[C@@]1(O)[C@@H](COC(Cc2nccs2)(C(=O)O)C(=O)O)O[C@@H](n2cnc3c(N)nc(Cl)nc32)[C@@H]1O [Example 142, 2-(((2R,3S,4R,5R)-5-(6-amino-2-chloro-9H-purin-9-yl)-3-ethynyl-3,4-dihydroxytetrahydrofuran-2-yl)methoxy)-2-(thiazol-2-ylmethyl)malonic acid]
16 | 13 nM | C#C[C@@]1(O)[C@@H](COC(Cc2cncs2)(C(=O)O)C(=O)O)O[C@@H](n2cnc3c(N)nc(Cl)nc32)[C@@H]1O [Example 143, 2-(((2R,3S,4R,5R)-5-(6-amino-2-chloro-9H-purin-9-yl)-3-ethynyl-3,4-dihydroxytetrahydrofuran-2-yl)methoxy)-2-(thiazol-5-ylmethyl)malonic acid]
17 | 1 nM | C#C[C@@]1(O)[C@@H](COC(Cc2ccc(N3CCCC3)cc2)(C(=O)O)C(=O)O)O[C@@H](n2cnc3c(N)nc(Cl)nc32)[C@@H]1O [Example 144, 2-(((2R,3S,4R,5R)-5-(6-amino-2-chloro-9H-purin-9-yl)-3-ethynyl-3,4-dihydroxytetrahydrofuran-2-yl)methoxy)-2-(4-(pyrrolidin-1-yl)benzyl)malonic acid]
18 | 108 nM | C#C[C@@]1(O)[C@@H](COC(Cc2ccccc2)(C(=O)O)C(=O)O)O[C@@H](n2cnc3c(N)nc(SCC)nc32)[C@@H]1O [Example 145, 2-(((2R,3S,4R,5R)-5-(6-amino-2-(ethylthio)-9H-purin-9-yl)-3-ethynyl-3,4-dihydroxytetrahydrofuran-2-yl)methoxy)-2-benzylmalonic acid]
19 | 0.41 nM | C#C[C@@]1(O)[C@@H](COC(Cc2ccc(-c3cccn(CCOC)c3=O)cc2)(C(=O)O)C(=O)O)O[C@@H](n2cnc3c(N)nc(Cl)nc32)[C@@H]1O [Example 146, 2-(((2R,3S,4R,5R)-5-(6-amino-2-chloro-9H-purin-9-yl)-3-ethynyl-3,4-dihydroxytetrahydrofuran-2-yl)methoxy)-2-(4-(1-(2-methoxyethyl)-2-oxo-1,2-dihydropyridin-3-yl)benzyl)malonic acid]
20 | 0.58 nM | C#C[C@@]1(O)[C@@H](COC(Cc2ccc(-c3ccc[nH]c3=O)cc2)(C(=O)O)C(=O)O)O[C@@H](n2cnc3c(NC)nc(Cl)nc32)[C@@H]1O [Example 147, 2-(((2R,3S,4R,5R)-5-(2-chloro-6-(methylamino)-9H-purin-9-yl)-3-ethynyl-3,4-dihydroxytetrahydrofuran-2-yl)methoxy)-2-(4-(2-oxo-1,2-dihydropyridin-3-yl)benzyl)malonic acid]
21 | 0.08 nM | C#C[C@@]1(O)[C@@H](COC(Cc2ccc(N3CCCN(C)C3=O)cc2)(C(=O)O)C(=O)O)O[C@@H](n2cnc3c(NC)nc(Cl)nc32)[C@@H]1O [Example 148, 2-(((2R,3S,4R,5R)-5-(2-chloro-6-(methylamino)-9H-purin-9-yl)-3-ethynyl-3,4-dihydroxytetrahydrofuran-2-yl)methoxy)-2-(4-(3-methyl-2-oxotetrahydropyrimidin-1 (2H)-yl)benzyl)malonic acid]
22 | 0.11 nM | C#C[C@@]1(O)[C@@H](COC(Cc2ccc(N3CCCN(C)C3=O)cc2)(C(=O)O)C(=O)O)O[C@@H](n2cnc3c(N)nc(Cl)nc32)[C@@H]1O [Example 149, 2-(((2R,3S,4R,5R)-5-(6-amino-2-chloro-9H-purin-9-yl)-3-ethynyl-3,4-dihydroxytetrahydrofuran-2-yl)methoxy)-2-(4-(3-methyl-2-oxotetrahydropyrimidin-1 (2H)-yl)benzyl)malonic acid]

From US11078228B2, “Ectonucleotidase inhibitors and methods of use thereof” (Calithera Biosciences, Inc., priority 2018, dated 2021)
